Laboratory results reported in PubChem BioAssay AID1259407 (Chemical Carcinogenesis Research Information System (CCRIS), 2018).
Calls of active or inactive are those of the source. No rule for the calls is given here.

Test system: CCRIS mutagenicity, Ames/micronucleus/aberration tests
Assay: CCRIS mutagenicity studies
Conditions: Test System: AMES SALMONELLA TYPHIMURIUM

Measured: mutagenic call

CCNc1nc(Cl)nc(NC(C)C)n1
inactive: Strain/Indicator: TA97, Metabolic Activation: HAMSTER, LIVER, S-9, AROCLOR 1254 (10%), Method: PREINCUBATION inactive; negative | Strain/Indicator: TA97, Metabolic Activation: HAMSTER, LIVER, S-9, AROCLOR 1254 (30%), Method: PREINCUBATION inactive; negative | Strain/Indicator: TA97, Metabolic Activation: NONE, Method: PREINCUBATION inactive; negative | Strain/Indicator: TA97, Metabolic Activation: NONE, Method: STANDARD PLATE inactive; negative | Strain/Indicator: TA97, Metabolic Activation: RAT, LIVER, S-9, AROCLOR 1254 (10%), Method: PREINCUBATION inactive; negative | Strain/Indicator: TA97, Metabolic Activation: RAT, LIVER, S-9, AROCLOR 1254 (30%), Method: PREINCUBATION inactive; negative | Strain/Indicator: TA97, Metabolic Activation: RAT, LIVER, S-9, AROCLOR 1254, Method: STANDARD PLATE inactive; negative | Strain/Indicator: TA97A, Metabolic Activation: NONE, Method: STANDARD PLATE inactive; negative | Strain/Indicator: TA97A, Metabolic Activation: RAT, LIVER, S-9, AROCLOR 1254, Method: STANDARD PLATE inactive; negative | Strain/Indicator: TA98, Metabolic Activation: HAMSTER, LIVER, S-9, AROCLOR 1254 (10%), Method: PREINCUBATION inactive; negative | Strain/Indicator: TA98, Metabolic Activation: HAMSTER, LIVER, S-9, AROCLOR 1254 (30%), Method: PREINCUBATION inactive; negative | Strain/Indicator: TA98, Metabolic Activation: NONE inactive; negative | Strain/Indicator: TA98, Metabolic Activation: NONE, Method: PREINCUBATION inactive; negative | Strain/Indicator: TA98, Metabolic Activation: PIG, LIVER, S-9, SODIUM PHENOBARBITAL AND BETA-NAPHTHOFLAVONE, Method: STANDARD PLATE inactive; negative | Strain/Indicator: TA98, Metabolic Activation: RAT, LIVER, S-9, AROCLOR 1254 inactive; negative | Strain/Indicator: TA98, Metabolic Activation: RAT, LIVER, S-9, AROCLOR 1254 (10%), Method: PREINCUBATION inactive; negative | Strain/Indicator: TA98, Metabolic Activation: RAT, LIVER, S-9, AROCLOR 1254 (30%), Method: PREINCUBATION inactive; negative | Strain/Indicator: TA98, Metabolic Activation: RAT, LIVER, S-9, AROCLOR 1254, Method: STANDARD PLATE inactive; negative | Strain/Indicator: TA98, Metabolic Activation: S-9, Method: STANDARD PLATE inactive; negative | Strain/Indicator: TA100, Metabolic Activation: HAMSTER, LIVER, S-9, AROCLOR 1254 (10%), Method: PREINCUBATION inactive; negative | Strain/Indicator: TA100, Metabolic Activation: HAMSTER, LIVER, S-9, AROCLOR 1254 (30%), Method: PREINCUBATION inactive; negative | Strain/Indicator: TA100, Metabolic Activation: NONE inactive; negative | Strain/Indicator: TA100, Metabolic Activation: NONE, Method: PREINCUBATION inactive; negative | Strain/Indicator: TA100, Metabolic Activation: PIG, LIVER, S-9, SODIUM PHENOBARBITAL AND BETA-NAPHTHOFLAVONE, Method: STANDARD PLATE inactive; negative | Strain/Indicator: TA100, Metabolic Activation: RAT, LIVER, S-9, AROCLOR 1254 inactive; negative | Strain/Indicator: TA100, Metabolic Activation: RAT, LIVER, S-9, AROCLOR 1254 (10%), Method: PREINCUBATION inactive; negative | Strain/Indicator: TA100, Metabolic Activation: RAT, LIVER, S-9, AROCLOR 1254 (30%), Method: PREINCUBATION inactive; negative | Strain/Indicator: TA100, Metabolic Activation: RAT, LIVER, S-9, AROCLOR 1254, Method: STANDARD PLATE inactive; negative | Strain/Indicator: TA100, Metabolic Activation: S-9, Method: STANDARD PLATE inactive; negative | Strain/Indicator: TA102, Metabolic Activation: NONE inactive; negative | Strain/Indicator: TA102, Metabolic Activation: NONE, Method: STANDARD PLATE inactive; negative | Strain/Indicator: TA102, Metabolic Activation: RAT, LIVER, S-9, AROCLOR 1254 inactive; negative | Strain/Indicator: TA102, Metabolic Activation: RAT, LIVER, S-9, AROCLOR 1254, Method: STANDARD PLATE inactive; negative | Strain/Indicator: TA1535, Metabolic Activation: HAMSTER, LIVER, S-9, AROCLOR 1254 (10%), Method: PREINCUBATION inactive; negative | Strain/Indicator: TA1535, Metabolic Activation: HAMSTER, LIVER, S-9, AROCLOR 1254 (30%), Method: PREINCUBATION inactive; negative | Strain/Indicator: TA1535, Metabolic Activation: NONE inactive; negative | Strain/Indicator: TA1535, Metabolic Activation: NONE, Method: PREINCUBATION inactive; negative | Strain/Indicator: TA1535, Metabolic Activation: NONE, Method: STANDARD PLATE inactive; negative | Strain/Indicator: TA1535, Metabolic Activation: RAT, LIVER, S-9, AROCLOR 1254 inactive; negative | Strain/Indicator: TA1535, Metabolic Activation: RAT, LIVER, S-9, AROCLOR 1254 (10%), Method: PREINCUBATION inactive; negative | Strain/Indicator: TA1535, Metabolic Activation: RAT, LIVER, S-9, AROCLOR 1254 (30%), Method: PREINCUBATION inactive; negative | Strain/Indicator: TA1535, Metabolic Activation: RAT, LIVER, S-9, AROCLOR 1254, Method: STANDARD PLATE inactive; negative | Strain/Indicator: TA1537, Metabolic Activation: HAMSTER, LIVER, S-9, AROCLOR 1254 (10%), Method: PREINCUBATION inactive; negative | Strain/Indicator: TA1537, Metabolic Activation: HAMSTER, LIVER, S-9, AROCLOR 1254 (30%), Method: PREINCUBATION inactive; negative | Strain/Indicator: TA1537, Metabolic Activation: NONE inactive; negative | Strain/Indicator: TA1537, Metabolic Activation: NONE, Method: PREINCUBATION inactive; negative | Strain/Indicator: TA1537, Metabolic Activation: NONE, Method: STANDARD PLATE inactive; negative | Strain/Indicator: TA1537, Metabolic Activation: RAT, LIVER, S-9, AROCLOR 1254 inactive; negative | Strain/Indicator: TA1537, Metabolic Activation: RAT, LIVER, S-9, AROCLOR 1254 (10%), Method: PREINCUBATION inactive; negative | Strain/Indicator: TA1537, Metabolic Activation: RAT, LIVER, S-9, AROCLOR 1254 (30%), Method: PREINCUBATION inactive; negative | Strain/Indicator: TA1537, Metabolic Activation: RAT, LIVER, S-9, AROCLOR 1254, Method: STANDARD PLATE inactive; negative | Strain/Indicator: TA1538, Metabolic Activation: NONE, Method: STANDARD PLATE inactive; negative | Strain/Indicator: TA1538, Metabolic Activation: RAT, LIVER, S-9, AROCLOR 1254, Method: STANDARD PLATE inactive; negative
